Measurements: ChEMBL document CHEMBL1149960, “Synthesis, insecticidal and anti-acetylcholinesterase activity of a new class of heterocyclic methanesulfonates” (Bioorg Med Chem Lett, 1996)
Converted amounts (≈) assume the structure as drawn.

Legend:
Acetylcholinesterase = biological target: T1, Acetylcholinesterase (Bos taurus, UniProt P23795)
T1 sequence (P23795 whole entry): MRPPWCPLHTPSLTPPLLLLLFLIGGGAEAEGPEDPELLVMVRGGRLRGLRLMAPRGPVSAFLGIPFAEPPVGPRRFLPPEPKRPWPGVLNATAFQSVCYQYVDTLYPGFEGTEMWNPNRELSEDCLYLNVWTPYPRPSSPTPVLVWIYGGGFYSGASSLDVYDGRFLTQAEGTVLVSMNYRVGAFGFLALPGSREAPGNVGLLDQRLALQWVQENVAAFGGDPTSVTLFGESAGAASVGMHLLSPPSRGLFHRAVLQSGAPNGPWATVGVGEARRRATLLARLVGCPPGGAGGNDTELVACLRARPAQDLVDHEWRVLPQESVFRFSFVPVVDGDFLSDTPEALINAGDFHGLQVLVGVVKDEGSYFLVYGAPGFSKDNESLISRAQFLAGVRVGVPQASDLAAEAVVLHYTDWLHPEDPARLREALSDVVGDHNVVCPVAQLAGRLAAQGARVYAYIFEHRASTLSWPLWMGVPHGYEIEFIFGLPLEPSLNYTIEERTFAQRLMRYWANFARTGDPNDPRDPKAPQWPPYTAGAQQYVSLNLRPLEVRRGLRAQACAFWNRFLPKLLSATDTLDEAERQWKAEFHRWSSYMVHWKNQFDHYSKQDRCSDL
Description: Inhibition of bovine erythrocyte acetylcholinesterase (AChE)

Lucilia cuprina = experiment: whole plant or invertebrate
Description: Insecticidal activity against blowfly Lucilia cuprina

[1] = test system: Diabrotica undecimpunctata; experiment: whole plant or invertebrate; settings: in Zea mays, read-out: LD50
Description: Insecticidal activity against southern Corn rootworm (SCRW)

SMILES	IC50 (Acetylcholinesterase)	LD50 (Lucilia cuprina)	LC50 [1]
CC(C)NS(=O)(=O)N1N=C(OS(C)(=O)=O)CC1c1ccccc1 (stereo unspecified)	> 1000 µM	> 100 mg/kg	> 1000 µg/mL
C=CCNC(=O)N1N=C(OS(C)(=O)=O)CC1(C)C	149 µM	6.84 mg/kg	1.6 µg/mL (≈ 5.81 µM)
CCCS(=O)(=O)N1N=C(OS(C)(=O)=O)CC1c1ccccc1 (stereo unspecified)	62.5 µM	> 100 mg/kg	> 1000 µg/mL
CC1(C)CC(OS(C)(=O)=O)=NN1S(C)(=O)=O	> 1000 µM	> 1000 mg/kg	> 1000 µg/mL
CC(C)C(=O)N1N=C(OS(C)(=O)=O)CC1(C)C	> 1000 µM	> 100 mg/kg	120 µg/mL (≈ 457 µM)
CC1(C)CC(OS(C)(=O)=O)=NN1C(N)=O	> 1000 µM	> 1000 mg/kg	> 1000 µg/mL
COP(=O)(OC)C(O)C(Cl)(Cl)Cl (stereo unspecified) [TRICHLORFON]	> 1000 µM	21.8 mg/kg	–
CC(C)NC(=O)N1N=C(OS(C)(=O)=O)CC1C (stereo unspecified)	28.6 µM	21 mg/kg	< 0.5 µg/mL
CC1(C)CC(OS(C)(=O)=O)=NN1C(=O)NC1CCCCC1	284 µM	2.64 mg/kg	> 1000 µg/mL
CC(C)CS(=O)(=O)c1cccc(OS(C)(=O)=O)n1	60.5 µM	> 100 mg/kg	< 0.5 µg/mL
CC(C)NC(=O)N1N=C(OS(C)(=O)=O)CC1(C)C	714 µM	7.14 mg/kg	1 µg/mL (≈ 3.61 µM)
CC(C)(C)NC(=O)N1N=C(OS(C)(=O)=O)CC1(C)C	> 1000 µM	75.9 mg/kg	12 µg/mL (≈ 41.2 µM)
CCCNS(=O)(=O)N1N=C(OS(C)(=O)=O)CC1(C)C	> 1000 µM	40.9 mg/kg	55 µg/mL (≈ 175 µM)
CC(C)NC(=O)N1N=C(OS(C)(=O)=O)CC1c1ccccc1 (stereo unspecified)	40.6 µM	34.4 mg/kg	< 0.5 µg/mL
CC(C)NC(=O)N1N=C(OS(C)(=O)=O)CC1C(C)C (stereo unspecified)	602 µM	25.1 mg/kg	5 µg/mL (≈ 17.2 µM)
CCOC(=O)N1N=C(OS(C)(=O)=O)CC1(C)C	> 1000 µM	> 100 mg/kg	> 1000 µg/mL
CC(C)NS(=O)(=O)N1N=C(OS(C)(=O)=O)CC1(C)C	1270 µM	37 mg/kg	60 µg/mL (≈ 191 µM)
CN(C)S(=O)(=O)N1N=C(OS(C)(=O)=O)CC1c1ccccc1 (stereo unspecified)	> 1000 µM	> 100 mg/kg	> 1000 µg/mL
CC1(C)CC(OS(C)(=O)=O)=NN1C(=O)Nc1ccccc1	> 1000 µM	> 100 mg/kg	> 1000 µg/mL
